Measurements: article PMC6080863 (ACS Catalysis, 2018)
Substitutions are numbered along the chain they refer to.

Columns and labels:
[1] = biological target: T1, DERAm (monomeric variant of ecDERA) (Escherichia coli, UniProt P0A6L0, K58E/Y96W); assay: 1H-15N HSQC NMR titration, chemical shift perturbation; assay type: binding
T1 sequence (P0A6L0 1-259 K58E/Y96W): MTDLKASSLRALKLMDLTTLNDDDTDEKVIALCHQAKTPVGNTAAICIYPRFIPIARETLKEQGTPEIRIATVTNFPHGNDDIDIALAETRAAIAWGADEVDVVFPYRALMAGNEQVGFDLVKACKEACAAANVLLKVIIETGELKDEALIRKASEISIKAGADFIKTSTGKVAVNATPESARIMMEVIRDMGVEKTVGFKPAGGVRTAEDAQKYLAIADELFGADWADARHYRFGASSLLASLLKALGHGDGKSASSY

[2] = biological target: T2, DERAm (monomeric variant of ecDERA) (Escherichia coli, UniProt P0A6L0, K58E/Y259F/Y96W); assay: as above; assay type: binding
T2 sequence (P0A6L0 1-259 K58E/Y96W/Y259F): T1 sequence (P0A6L0 1-259 K58E/Y96W) with Y259F

Work on `O=P(O)(O)O` [potassium phosphate] yielded a Kd [1] of 18.8 ± 3.6 mM and a Kd [2] of 17.9 ± 2.4 mM.
